Results as given in patent publication US10442807B2, “Aryl substituted bicyclic compounds as herbicides” (FMC Corporation, priority 2015, dated 2019).

What was measured:
Format in all cases: in vivo
[1] = tested on: barnyardgrass (Echinochloa crus-galli); experiment: Test A preemergence, directed soil spray, visual injury rating; details: approx. 10 d, 0 = no effect, 100 = complete control
Source text: (§1) Seeds of plant species selected from barnyardgrass (Echinochloa crus-galli), kochia (Kochia scoparia), ragweed (common ragweed, Ambrosia elation), ryegrass, Italian (Italian ryegrass, Lolium multiflorum), foxtail, giant (giant foxtail, Setaria faberii), and pigweed (Amaranthus retroflexus), were planted into a blend of loam soil and sand and treated preemergence with a directed soil spray using test chemicals formulated in a non-phytotoxic solvent mixture which included a surfactant. At the same time, plants selected from these weed species and also blackgrass (Alopecurus myosuroides), galium (catchweed bedstraw, Galium aparine), wheat (Triticum aestivum), and corn (Zea mays) were planted in pots containing the same blend of loam soil and sand and treated with postemergence applications of test chemicals formulated in the same manner. Plants ranged in height from 2 to 10 cm and were in the one- to two-leaf stage for the postemergence treatment. Treated plants and untreated controls were maintained in a greenhouse for approximately 10 d, after which time all treated plants were compared to untreated controls and visually evaluated for injury. Plant response ratings, summarized in Table A, are based on a 0 to 100 scale where 0 is no effect and 100 is complete control. A dash (-) response means no test result.

[2] = tested on: foxtail, giant (giant foxtail, Setaria faberii); experiment: as above; details: approx. 10 d, 0 = no effect, 100 = complete control
Source text: as §1

kochia (Kochia scoparia) [3] = experiment: as above; details: approx. 10 d, 0 = no effect, 100 = complete control
Source text: as §1

[4] = tested on: pigweed (Amaranthus retroflexus); experiment: as above; details: approx. 10 d, 0 = no effect, 100 = complete control
Source text: as §1

[5] = tested on: ragweed (common ragweed, Ambrosia elation); experiment: as above; details: approx. 10 d, 0 = no effect, 100 = complete control
Source text: as §1

[6] = tested on: ryegrass, Italian (Italian ryegrass, Lolium multiflorum); experiment: as above; details: approx. 10 d, 0 = no effect, 100 = complete control
Source text: as §1

[7] = tested on: barnyardgrass (Echinochloa crus-galli); experiment: Test A postemergence application, visual injury rating; details: approx. 10 d, 0 = no effect, 100 = complete control
Source text: as §1

[8] = tested on: blackgrass (Alopecurus myosuroides); experiment: as above; details: approx. 10 d, 0 = no effect, 100 = complete control
Source text: as §1

corn (Zea mays) = experiment: as above; details: approx. 10 d, 0 = no effect, 100 = complete control
Source text: as §1

[9] = tested on: foxtail, giant (giant foxtail, Setaria faberii); experiment: as above; details: approx. 10 d, 0 = no effect, 100 = complete control
Source text: as §1

[10] = tested on: galium (catchweed bedstraw, Galium aparine); experiment: as above; details: approx. 10 d, 0 = no effect, 100 = complete control
Source text: as §1

kochia (Kochia scoparia) [11] = experiment: as above; details: approx. 10 d, 0 = no effect, 100 = complete control
Source text: as §1

[12] = tested on: pigweed (Amaranthus retroflexus); experiment: as above; details: approx. 10 d, 0 = no effect, 100 = complete control
Source text: as §1

[13] = tested on: ragweed (common ragweed, Ambrosia elation); experiment: as above; details: approx. 10 d, 0 = no effect, 100 = complete control
Source text: as §1

[14] = tested on: ryegrass, Italian (Italian ryegrass, Lolium multiflorum); experiment: as above; details: approx. 10 d, 0 = no effect, 100 = complete control
Source text: as §1

[15] = tested on: wheat (Triticum aestivum); experiment: as above; details: approx. 10 d, 0 = no effect, 100 = complete control
Source text: as §1

[16] = tested on: barnyardgrass (Echinochloa crus-galli); experiment: Test B flooded paddy test, visual plant response rating; details: 250 g ai/ha; applied to paddy water at 2-leaf stage; rated after 13 to 15 days; scale 0 to 100, 0 is no effect, 100 is complete control
Source text: (§2) At time of treatment, test pots were flooded to 3 cm above the soil surface, treated by application of test compounds directly to the paddy water, and then maintained at that water depth for the duration of the test. Treated plants and controls were maintained in a greenhouse for 13 to 15 days, after which time all species were compared to controls and visually evaluated. Plant response ratings, summarized in Table B, are based on a scale of 0 to 100 where 0 is no effect and 100 is complete control. A dash (-) response means no test result.

[17] = tested on: ducksalad (Heteranthera limosa); experiment: as above; details: 250 g ai/ha; applied to paddy water at 2-leaf stage; rated after 13 to 15 days; scale 0 to 100, 0 is no effect, 100 is complete control
Source text: as §2

rice (Oryza sativa) = experiment: as above; details: 250 g ai/ha; applied to paddy water at 2-leaf stage; rated after 13 to 15 days; scale 0 to 100, 0 is no effect, 100 is complete control
Source text: as §2

[18] = tested on: sedge, umbrella (small-flower umbrella sedge, Cyperus difformis); experiment: as above; details: 250 g ai/ha; applied to paddy water at 2-leaf stage; rated after 13 to 15 days; scale 0 to 100, 0 is no effect, 100 is complete control
Source text: as §2

Row | Structure (SMILES) | Barnyardgrass plant response rating (0 to 100 scale) ([1]; 125 g ai/ha) | Barnyardgrass plant response rating (0 to 100 scale) ([1]; 500 g ai/ha) | Foxtail, Giant plant response rating (0 to 100 scale) ([2]; 125 g ai/ha) | Foxtail, Giant plant response rating (0 to 100 scale) ([2]; 500 g ai/ha) | Kochia plant response rating (0 to 100 scale) (kochia (Kochia scoparia) [3]; 125 g ai/ha) | Kochia plant response rating (0 to 100 scale) (kochia (Kochia scoparia) [3]; 500 g ai/ha) | Pigweed plant response rating (0 to 100 scale) ([4]; 125 g ai/ha) | Pigweed plant response rating (0 to 100 scale) ([4]; 500 g ai/ha) | Ragweed plant response rating (0 to 100 scale) ([5]; 125 g ai/ha) | Ragweed plant response rating (0 to 100 scale) ([5]; 500 g ai/ha) | Ryegrass, Italian plant response rating (0 to 100 scale) ([6]; 125 g ai/ha) | Ryegrass, Italian plant response rating (0 to 100 scale) ([6]; 500 g ai/ha) | Barnyardgrass plant response rating (0 to 100 scale) ([7]; 125 g ai/ha) | Barnyardgrass plant response rating (0 to 100 scale) ([7]; 500 g ai/ha) | Blackgrass plant response rating (0 to 100 scale) ([8]; 125 g ai/ha) | Blackgrass plant response rating (0 to 100 scale) ([8]; 500 g ai/ha) | Corn plant response rating (0 to 100 scale) (corn (Zea mays); 125 g ai/ha) | Corn plant response rating (0 to 100 scale) (corn (Zea mays); 500 g ai/ha) | Foxtail, Giant plant response rating (0 to 100 scale) ([9]; 125 g ai/ha) | Foxtail, Giant plant response rating (0 to 100 scale) ([9]; 500 g ai/ha) | further results
1 | CSc1ccccc1NC(=O)C1c2nnc(C)n2CC1c1ccc(C)c(C)c1 (centres unmarked) [Compound 14] | 0 | 30 | 0 | 60 | 0 | 0 | 0 | 0 | 0 | 0 | 0 | 0 | 0 | 20 | 0 | 20 | 0 | 0 | 0 | 20 | Galium plant response rating (0 to 100 scale) ([10]; 125 g ai/ha): 0; Galium plant response rating (0 to 100 scale) ([10]; 500 g ai/ha): 0; Kochia plant response rating (0 to 100 scale) (kochia (Kochia scoparia) [11]; 125 g ai/ha): 0; Kochia plant response rating (0 to 100 scale) (kochia (Kochia scoparia) [11]; 500 g ai/ha): 0; Pigweed plant response rating (0 to 100 scale) ([12]; 125 g ai/ha): 0; Pigweed plant response rating (0 to 100 scale) ([12]; 500 g ai/ha): 0; Ragweed plant response rating (0 to 100 scale) ([13]; 125 g ai/ha): 0; Ragweed plant response rating (0 to 100 scale) ([13]; 500 g ai/ha): 0; Ryegrass, Italian plant response rating (0 to 100 scale) ([14]; 125 g ai/ha): 0; Ryegrass, Italian plant response rating (0 to 100 scale) ([14]; 500 g ai/ha): 0; Wheat plant response rating (0 to 100 scale) ([15]; 125 g ai/ha): 0; Wheat plant response rating (0 to 100 scale) ([15]; 500 g ai/ha): 0; Plant response rating, Flood, Barnyardgrass [16]: 20; Plant response rating, Flood, Ducksalad [17]: 60; Plant response rating, Flood, Rice (rice (Oryza sativa)): 0; Plant response rating, Flood, Sedge, Umbrella [18]: 0
2 | O=C(Nc1cccc(F)c1F)C1c2nncn2CC1c1ccc(Cl)cc1 (centres unmarked) [Compound 7] | 30 | 70 | 40 | 80 | 0 | 40 | 0 | 20 | 0 | 50 | 0 | 0 | 20 | 70 | 0 | 0 | 20 | 30 | 20 | 70 | Galium plant response rating (0 to 100 scale) ([10]; 125 g ai/ha): 40; Galium plant response rating (0 to 100 scale) ([10]; 500 g ai/ha): 50; Kochia plant response rating (0 to 100 scale) (kochia (Kochia scoparia) [11]; 125 g ai/ha): 0; Kochia plant response rating (0 to 100 scale) (kochia (Kochia scoparia) [11]; 500 g ai/ha): 40; Pigweed plant response rating (0 to 100 scale) ([12]; 125 g ai/ha): 0; Pigweed plant response rating (0 to 100 scale) ([12]; 500 g ai/ha): 50; Ragweed plant response rating (0 to 100 scale) ([13]; 125 g ai/ha): 0; Ragweed plant response rating (0 to 100 scale) ([13]; 500 g ai/ha): 60; Ryegrass, Italian plant response rating (0 to 100 scale) ([14]; 125 g ai/ha): 0; Ryegrass, Italian plant response rating (0 to 100 scale) ([14]; 500 g ai/ha): 20; Wheat plant response rating (0 to 100 scale) ([15]; 125 g ai/ha): 0; Wheat plant response rating (0 to 100 scale) ([15]; 500 g ai/ha): 20; Plant response rating, Flood, Barnyardgrass [16]: 0; Plant response rating, Flood, Ducksalad [17]: 50; Plant response rating, Flood, Rice (rice (Oryza sativa)): 15; Plant response rating, Flood, Sedge, Umbrella [18]: 0
3 | CCc1ccc(C2Cn3cnnc3C2C(=O)Nc2ccccc2SC)cc1 (centres unmarked) [Compound 25] | 0 | 40 | 0 | 40 | 0 | 20 | 0 | 0 | 0 | 0 | 0 | 0 | 20 | 30 | 0 | 0 | 0 | 0 | 0 | 30 | Galium plant response rating (0 to 100 scale) ([10]; 125 g ai/ha): 0; Galium plant response rating (0 to 100 scale) ([10]; 500 g ai/ha): 0; Kochia plant response rating (0 to 100 scale) (kochia (Kochia scoparia) [11]; 125 g ai/ha): 30; Kochia plant response rating (0 to 100 scale) (kochia (Kochia scoparia) [11]; 500 g ai/ha): 30; Pigweed plant response rating (0 to 100 scale) ([12]; 125 g ai/ha): 0; Pigweed plant response rating (0 to 100 scale) ([12]; 500 g ai/ha): 0; Ragweed plant response rating (0 to 100 scale) ([13]; 125 g ai/ha): 0; Ragweed plant response rating (0 to 100 scale) ([13]; 500 g ai/ha): 0; Ryegrass, Italian plant response rating (0 to 100 scale) ([14]; 125 g ai/ha): 0; Ryegrass, Italian plant response rating (0 to 100 scale) ([14]; 500 g ai/ha): 0; Wheat plant response rating (0 to 100 scale) ([15]; 125 g ai/ha): 0; Wheat plant response rating (0 to 100 scale) ([15]; 500 g ai/ha): 0; Plant response rating, Flood, Barnyardgrass [16]: 0; Plant response rating, Flood, Ducksalad [17]: 65; Plant response rating, Flood, Rice (rice (Oryza sativa)): 0; Plant response rating, Flood, Sedge, Umbrella [18]: 0
4 | O=C(Nc1ccccc1F)C1C2=NCC(=O)N2CC1c1cccc(C(F)(F)F)c1 (centres unmarked) [Compound 3, N-(2-fluorophenyl)-2,3,6,7-tetrahydro-3-oxo-6-[3-(trifluoromethyl)phenyl]-5H-pyrrolo[1,2-a]imidazole-7-carboxamide] | 0 | 60 | 0 | 80 | 0 | 0 | 0 | 0 | 0 | 0 | 0 | 0 | 0 | 30 | 0 | 0 | 0 | 0 | 20 | 50 | Galium plant response rating (0 to 100 scale) ([10]; 125 g ai/ha): 0; Galium plant response rating (0 to 100 scale) ([10]; 500 g ai/ha): 0; Kochia plant response rating (0 to 100 scale) (kochia (Kochia scoparia) [11]; 125 g ai/ha): 0; Kochia plant response rating (0 to 100 scale) (kochia (Kochia scoparia) [11]; 500 g ai/ha): 0; Pigweed plant response rating (0 to 100 scale) ([12]; 125 g ai/ha): 0; Pigweed plant response rating (0 to 100 scale) ([12]; 500 g ai/ha): 0; Ragweed plant response rating (0 to 100 scale) ([13]; 125 g ai/ha): 0; Ragweed plant response rating (0 to 100 scale) ([13]; 500 g ai/ha): 0; Ryegrass, Italian plant response rating (0 to 100 scale) ([14]; 125 g ai/ha): 0; Ryegrass, Italian plant response rating (0 to 100 scale) ([14]; 500 g ai/ha): 10; Wheat plant response rating (0 to 100 scale) ([15]; 125 g ai/ha): 0; Wheat plant response rating (0 to 100 scale) ([15]; 500 g ai/ha): 0
